According to patent US20240124515A1, “ORALLY ACTIVE LEUKEMIA INHIBITORY FACTOR (LIF) ANTAGONISTS FOR THE TREATMENT OF CANCER” (Evestra, Inc., priority 2021, published 2024):
pKd: −log10 of the molar value. Read-outs that look alike come from different tables or passages of the source. One block for each compound: values may come before it.

Columns and labels:
LIF/LIFR = details: background; cited from earlier work
[1] = PK study, oral bioavailability in rats; assay type: in vivo, Sprague Dawley rats; details: for bioavailability: Sprague Dawley, rat, plasma, po
Description: For example, the oral bioavailability can be determined by the formula (1):
F=100*(AUCpo*Div/AUCiv*Dpo) (1)
where: F is bioavailability; AUCpo is dose-corrected area under curve of non-intravenous oral drug; Div is the intravenous dose; AUCiv is the area under the curve intravenous; and Dpo is the oral dose.

other steroid receptors = test: Binding to other steroid receptors; details: Table 1
[2] = rodent pharmacokinetic (PK) studies
xenograft and PDX models = details: background; cited from earlier work
MCF7/LIF cells = test: Effect on MCF7 cells with artificial LIF expression (FIG. 1); assay type: cell-based; details: artificial expression of LIF in MCF7 cells
Protocol: (§1) The artificial expression of LIF in MCF7 cells (MCF7/LIF) made those cells vulnerable to LIF inhibitors (FIG. 1) such as compound 5 (EC905) and compound 13 (EC915)
(§2) In order to identify the mechanism of action of EC914, we checked cytotoxicity of these compounds in various cells lines and derived IC50 values. Briefly, 5×10^3 cells were seeded in 96-well plates and incubated with compounds (0.0001-10 μmol/L) or dimethyl sulfoxide (DMSO; 0.02% v/v) for 24, 48, and 72 hours at 37° C. and cell viability was measured using a Fluoroscan plate reader (Nair et al. Estrogen receptor-β activation in combination with letrozole blocks the growth of breast cancer tumors resistant to letrozole therapy. Steroids. 2011 July; 76(8):792-6).

[3] = system: NE-1.8 (neuro endocrine-like) prostate cancer cell line; test: Calcein AM fluorescent dye-based cell viability assay, NE-1.8 cells; details: 96 hours, 50 nM to 250 nm EC914
Protocol: In one test, NE-1.8 (neuro endocrine-like) prostate cancer cell line was treated with compound 12 (EC914).
After 96 hours, the cell viability was observed using Calcein AM fluorescent dye-based cell viability assay. More than 50-80% of cell growth inhibition was observed from 50 nM to 250 nm concentration of EC914 compared to vehicle control. Similar growth inhibition trend was observed upon treatment with LIF inhibitor on the C42B prostate cancer cell line at 48 hrs.

[4] = system: triple negative breast cancer cells; test: Antiproliferative activity in TNBC cells; assay type: cell-based
Protocol: as §1, §2

pSTAT3 = test: Western blot of STAT3 phosphorylation (FIG. 2); assay type: cell-based
Protocol: It is believed that EC914 binds directly to LIFR and blocks LIF signaling. Binding of EC914 to LIFR was measured by microscale thermophoresis (MST). The binding kD was 174 nM (FIG. 3).
In brief, MDA-MB-231/BT549 cells were treated with compounds for 3 days at different concentrations (10, 100 nM) and cell lysates were separated by 8% SDS-PAGE and transferred to polyvinylidene difluoride membranes. Membranes were then incubated with primary antibodies including phosphorylated and/or total pSTAT3. After overnight incubation at 4° C., membranes were incubated with secondary antibodies. Immunoreactive bands were then visualized by the enhanced chemiluminescence (ECL) detection system (GE healthcare.

LIFR = target: T1, LIFR (Homo sapiens, UniProt P42702); test: Microscale thermophoresis (MST) binding to LIFR
T1 sequence (P42702 45-1097): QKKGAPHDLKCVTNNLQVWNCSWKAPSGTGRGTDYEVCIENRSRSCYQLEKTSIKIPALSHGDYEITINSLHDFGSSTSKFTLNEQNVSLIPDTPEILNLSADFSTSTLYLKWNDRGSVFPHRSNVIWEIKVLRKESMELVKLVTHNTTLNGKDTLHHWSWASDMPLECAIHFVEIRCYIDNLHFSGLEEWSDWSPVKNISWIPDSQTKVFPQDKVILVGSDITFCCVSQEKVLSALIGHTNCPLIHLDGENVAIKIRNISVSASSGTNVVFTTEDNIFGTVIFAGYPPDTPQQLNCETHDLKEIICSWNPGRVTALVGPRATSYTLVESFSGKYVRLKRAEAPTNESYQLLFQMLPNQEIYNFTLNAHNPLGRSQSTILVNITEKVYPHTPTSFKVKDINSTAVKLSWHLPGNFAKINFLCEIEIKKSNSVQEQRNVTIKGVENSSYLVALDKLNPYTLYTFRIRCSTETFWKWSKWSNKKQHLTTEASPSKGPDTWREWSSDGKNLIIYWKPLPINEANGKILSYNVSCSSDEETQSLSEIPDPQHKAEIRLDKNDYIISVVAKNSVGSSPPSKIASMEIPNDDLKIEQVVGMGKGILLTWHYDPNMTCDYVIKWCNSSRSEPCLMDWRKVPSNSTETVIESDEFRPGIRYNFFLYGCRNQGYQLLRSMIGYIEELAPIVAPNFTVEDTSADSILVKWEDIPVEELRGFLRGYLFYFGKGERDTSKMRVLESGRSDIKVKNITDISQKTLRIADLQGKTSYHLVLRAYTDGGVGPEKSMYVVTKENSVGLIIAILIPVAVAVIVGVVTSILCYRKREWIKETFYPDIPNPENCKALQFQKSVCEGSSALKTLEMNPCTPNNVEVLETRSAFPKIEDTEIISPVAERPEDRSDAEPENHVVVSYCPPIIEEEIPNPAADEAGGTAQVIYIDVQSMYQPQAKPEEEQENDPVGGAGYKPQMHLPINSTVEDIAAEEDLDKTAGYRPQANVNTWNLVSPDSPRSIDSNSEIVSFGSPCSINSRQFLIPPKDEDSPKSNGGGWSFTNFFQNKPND
Protocol: Binding of EC914 to LIFR was measured by microscale thermophoresis (MST).

MDA-MB-231 xenograft = test: MDA-MB-231 tumor xenograft study; assay type: in vivo, athymic nude mice; details: TNBC mouse xenograft model, initial 3 doses of 10 mg/kg, oral, FIG. 5
Protocol: Uniform suspensions of human breast cancer MDA-MB-231 cells (2×10^6) in 100 μL (0.02 carboxymethyl cellulose in phosphate buffered saline) were injected subcutaneously into the right and left flanks of 4- to 5-week-old female athymic nude mice (Charles River Laboratories). After 10 days, when the tumor […] reaches 100 mm^3, the mice were randomly allocated to 3 groups of each containing 6 animals. Group 1 served as the untreated control, groups 2 received EC914 orally at 10 mg/kg daily for 3 doses. All drug was formulated in a vehicle containing 58.5% Labrasol ALF, 22.5% Labrafil M, 1944 CS, 9% Capryol 90 and 10% water q.s. Tumors were allowed to reach palpability before drug intervention. Tumor size was measured every 3 days using digital Vernier Calipers and tumor volume was calculated using the ellipsoid formula [D×(d2)]/2, where D is the large diameter of the tumor and d represents the small diameter. On day 19, the mice were euthanized, and tumors were harvested for protein and gene expression studies since the control tumors reached maximum allowable size as the IACUC regulations (See FIG. 5).

HESE cells = test: Caspase-3/7 apoptosis assay (Caspase-Glo); assay type: cell-based; details: Caspase-3/7 activity
Protocol: Caspase-3/7 activity in HESE cells was measured using Caspase-Glo assay kit (Promega), as described before (Bhaskaran et al, 2013). Briefly, cells were homogenized in homogenization buffer (25 mmol/L HEPES, pH 7.5, 5 mmol/L MgCl2, and 1 mmol/L EGTA), protease inhibitors, and the homogenate was centrifuged at 13,000 rpm at 4° C. for 15 minutes. To 10 μL of the supernatant containing protein was added to an equal volume of the assay reagent and incubated at room temperature for 2 hours. The luminescence was measured using a luminometer.

[5] = system: murine and human PCa cells; test: Viability and Incucyte Cytotox assay of PCa cells (FIG. 6); assay type: cell-based
Description: FIG. 6A depicts a line graph showing significant decline in the viability of murine and human PCa cells upon treatment with EC914 and/or Docetaxel.

[6] = system: STAT1, STAT3, AKT, ERK, Myc, and tCyclinD1 proteins; test: Western blot of cellular signaling in PCa cells (FIG. 7A); assay type: cell-based; details: no change in total proteins
Protocol: (§3) In this study, the cellular signaling disrupted upon EC 914 treatment was analyzed. […] Thus, cancer stemness enrichment upon DTX treatment might be abolished by LIF/LIFR signaling disruption through EC914 inhibitor.

[7] = system: MDR1, CD44, Sox2, ALDH1, and CD133; test: Western blot of CSC marker expression in PCa (FIG. 7C); assay type: cell-based
Protocol: as §3

[8] = system: 22Rv1 and cE2 mouse syngeneic cells; test: Prostate cancer tumor models in vivo (FIG. 9); details: 22Rv1 and cE2 subcutaneous tumors in athymic nude mice
Protocol: 22Rv1 and cE2 mouse syngeneic cells were subcutaneously implanted in athymic nude mice (0.75×10^6/mice). Two weeks after post-implantation, mice were randomized into four groups. Group 1 mice received saline, whereas group 2 and group 3 mice received EC 914 (every alternative day) or DTX (once in 3 days) alone. Finally, group 4 mice were administered with both EC 914 and DTX. […] Based on this rationale, it is believed that LIFR is overexpressed in response to DTX treatment and induces resistance, and enriches the CSC population in metastatic CRPC.

SMILES: C#CC(F)(F)[C@]1(O)CC[C@H]2[C@@H]3CCC4=CC(=O)CCC4=C3[C@@H](c3ccc(C4CC4)cc3)C[C@@]21C [EC330]
LIF/LIFR mediated proliferation and tumor growth (LIF/LIFR): efficiently inhibited

SMILES: C#CC(F)(F)[C@]1(O)CC[C@H]2[C@@H]3CCC4=CC(=O)CCC4=C3[C@@H](c3ccc(-c4c(C)cc(C)cc4C)cc3)C[C@@]21C [EC359, reference compound]
oral bioavailability ([1]; Table 1): 16%
Binding to other steroid receptors (other steroid receptors): Low binding to PR
oral bioavailability [2]: 16%
efficacy in preclinical xenograft and PDX models (xenograft and PDX models): good efficacy

SMILES: C#CC(F)(F)[C@]1(O)CCC2C3CCC4=CC(=O)CCC4=C3[C@@H](c3cccc(-c4cccnc4)c3)C[C@@]21C (stereo partly shown) [EC905]
vulnerability of MCF7/LIF cells to LIF inhibitors (MCF7/LIF cells): vulnerable

pKd (LIFR; MST, FIG. 3, read-out: binding kD to LIFR): 6.76
pKd (LIFR; Table 1, read-out: LIFR binding): 6.76
bioavailability ([1]; PK studies in Sprague Dawley rats, FIG. 4): 87.9%
bioavailability ([1]; Table 1): 87.9%
Binding to other steroid receptors (other steroid receptors): No
SMILES: C#CC(F)(F)[C@]1(O)CCC2C3CCC4=CC(=O)CCC4=C3[C@@H](c3cccc(C#N)c3C)C[C@@]21C (stereo partly shown) [EC914]
cell growth inhibition compared to vehicle control [3]: 50-80%
antiproliferative activity [4]: potent antiproliferative activity
STAT3 phosphorylation (pSTAT3): reduced STAT3 phosphorylation
tumor burden (MDA-MB-231 xenograft): reduced tumors burden
percent of apoptosis induced (HESE cells): comparable to that of EC359
cytotoxicity of Docetaxel in PCa ([5]; 22Rv1 cells, Incucyte Cytotox assay, FIG. 6B): increases cytotoxicity of Docetaxel
viability of PCa cells ([5]; murine and human PCa cells, FIG. 6A): decreases viability
phosphorylation of STAT1 and STAT3 and of AKT, ERK, Myc, tCyclinD1 [6]: decreased
key CSC marker expression (MDR1, CD44, Sox2, ALDH1, CD133) [7]: specifically decreases
tumor growth [8]: inhibit tumor growth

SMILES: C#CC(F)(F)[C@]1(O)CCC2C3CCC4=CC(=O)CCC4=C3[C@@H](c3ccc(C#N)cc3C)C[C@@]21C (stereo partly shown) [EC915]
vulnerability of MCF7/LIF cells to LIF inhibitors (MCF7/LIF cells): vulnerable
